From PubChem BioAssay (NCI)
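Five concentrations, 48 hours, 96-well plates. TGI: total growth inhibition.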

Experiments:
Experiment in all cases: growth of human tumour cells (NCI), 48 h
786-0 renal = tested on: 786-0 renal
EKVX NSCLC = tested on: EKVX NSCLC
HCC-2998 colon = tested on: HCC-2998 colon
HCT-15 colon = tested on: HCT-15 colon
IGROV1 ovarian = tested on: IGROV1 ovarian
LOX IMVI melanoma = tested on: LOX IMVI melanoma
MALME-3M melanoma = tested on: MALME-3M melanoma
NCI-H23 lung = tested on: NCI-H23 lung
SNB-75 CNS = tested on: SNB-75 CNS
SR leukemia = tested on: SR leukemia

Structure (SMILES)	TGI (786-0 renal)	TGI (EKVX NSCLC)	TGI (HCC-2998 colon)	TGI (HCT-15 colon)	TGI (IGROV1 ovarian)	TGI (LOX IMVI melanoma)	TGI (MALME-3M melanoma)	TGI (NCI-H23 lung)	TGI (SNB-75 CNS)	TGI (SR leukemia)
O=NN1CCCS1(=O)=O	> 100 µM	> 100 µM	> 100 µM	> 100 µM	> 100 µM	> 100 µM	> 100 µM	> 100 µM	> 100 µM	> 100 µM
Nn1c(Sc2nc3ccccc3c(=O)n2N)nc2ccccc2c1=O	18.6 µM	38.9 µM	30.7 µM	16.5 µM	23.3 µM	4.25 µM	12.8 µM	5.43 µM	34.8 µM	5.1 µM
COc1cc2c(cc1O)CCN(C)[C@H]2Cc1ccc(Oc2c(O)c(OC)cc3c2C[C@H]2c4c(c(OC)c(OC)c(OC)c4-3)CCN2C)cc1	9.4 µM	11.3 µM	8.09 µM	10.1 µM	10.7 µM	6.55 µM	13.6 µM	12.9 µM	9.61 µM	4.86 µM
Cc1ccc(NC2=N/C(=C/c3ccco3)C(Cl)=N2)cc1	> 100 µM	> 100 µM	> 49.7 µM	> 100 µM	> 100 µM	> 100 µM	> 100 µM	> 100 µM	> 100 µM	> 100 µM
NC(=S)N/N=C1\CCCC1C(O)(C(F)(F)Cl)C(F)(F)Cl (stereo not given)	> 10 µM	> 10 µM	> 10 µM	> 10 µM	> 10 µM	> 10 µM	> 10 µM	> 10 µM	> 10 µM	> 10 µM
CCN(CC)C1Oc2cc3c(cc2C(c2cc(OC)c(OC)c(OC)c2)C1C)OCO3 (stereo not given)	> 40.6 µM	> 75.5 µM	19.8 µM	13.3 µM	> 63.2 µM	> 48.8 µM	> 64 µM	> 49 µM	> 69.9 µM	5.01 µM
O=c1[nH]c2cc([N+](=O)[O-])c(Nc3c4ccccc4nc4ccccc34)c([N+](=O)[O-])c2[nH]1	17.6 µM	7.47 µM	5.75 µM	14.4 µM	3.04 µM	7.02 µM	5.09 µM	16 µM	13.5 µM	4.36 µM
C=CC(OC(C)=O)c1ccc(OC(C)=O)cc1 (stereo not given)	2.99 µM	41.4 µM	18.6 µM	23.5 µM	29.5 µM	9 µM	11.2 µM	37.3 µM	31.5 µM	18.5 µM
NNC(=O)Cn1ccnn1	> 100 µM	> 100 µM	> 100 µM	> 100 µM	> 100 µM	> 100 µM	> 100 µM	> 100 µM	> 100 µM	> 100 µM
CC1CN=C(c2ccc(-c3nc(-c4ccc(C5=NCC(C)N5)cc4)nc(N(C)C)n3)cc2)N1 (stereo not given)	4.49 µM	8.67 µM	3.76 µM	33.9 µM	18 µM	2.93 µM	8.87 µM	9.94 µM	4.29 µM	2.49 µM
CC(C)(Cc1ccccc1)N1C(=O)N1C(C)(C)Cc1ccccc1	56.4 µM	> 100 µM	> 100 µM	68.2 µM	> 100 µM	33.6 µM	98.4 µM	65.5 µM	> 100 µM	> 100 µM
CC(=O)Nc1ccc(/C=C2/NC(=S)N(/C=C3\C(=O)Oc4ccccc4C3=O)C2=O)cc1	> 100 µM	> 100 µM	> 100 µM	> 100 µM	> 100 µM	> 100 µM	> 100 µM	> 100 µM	63.1 µM	> 100 µM
COC(=O)C1CC23C=CCN4CC(C2C)C2(c5ccccc5NC12)C43 (stereo not given)	> 100 µM	> 100 µM	> 100 µM	> 100 µM	> 100 µM	> 100 µM	> 100 µM	> 100 µM	> 100 µM	> 100 µM
O=[N+]([O-])c1ccc2c(c1)n1c(N3CCCC3)[n+]3ccccc3c1c1c3cccc[n+]3c(N3CCCC3)n21	> 100 µM	> 100 µM	> 100 µM	> 100 µM	> 100 µM	> 100 µM	> 100 µM	> 100 µM	> 100 µM	> 100 µM
O=C1/C(=C/c2ccc(O)cc2)CCC1CNc1ccccc1 (stereo not given)	18.9 µM	33.6 µM	35.8 µM	13.9 µM	25.3 µM	22.2 µM	30.6 µM	30.4 µM	41.2 µM	4.22 µM
O=C(O)CCSC1=NCCN1	> 100 µM	> 100 µM	> 100 µM	> 100 µM	> 100 µM	> 100 µM	> 100 µM	> 100 µM	> 100 µM	> 100 µM
CC1=NN2C(=N)/C(=C/c3ccccc3)C(=O)N=C2S1	> 100 µM	> 100 µM	> 100 µM	> 100 µM	> 100 µM	> 100 µM	> 100 µM	> 100 µM	> 100 µM	> 100 µM
Cn1ccc2c(c1=O)C(=O)OC2(C)C	> 100 µM	> 100 µM	> 100 µM	> 100 µM	> 100 µM	> 100 µM	> 100 µM	> 100 µM	> 100 µM	> 100 µM
CCN1CCCn2c(=O)[nH]c3cc(Br)cc1c32	> 100 µM	> 100 µM	> 100 µM	> 100 µM	> 100 µM	> 100 µM	> 100 µM	> 100 µM	43.2 µM	> 100 µM
CC(C)(CN1CCCCC1)C(/C=C/c1ccccc1)=N\NC(=O)N/N=C(/C=C/c1ccccc1)C(C)(C)CN1CCCCC1	2.78 µM	20.7 µM	1.86 µM	2.72 µM	6.07 µM	3.32 µM	3.7 µM	4.68 µM	3.05 µM	2.08 µM
COC(=O)c1cc(C)ccc1/C=C1\Cc2c(C)cc(C)cc2C1=O	40.6 µM	> 88.4 µM	> 100 µM	> 100 µM	> 100 µM	> 100 µM	> 100 µM	> 72.3 µM	35.5 µM	> 100 µM
CNC(=O)N(CCC#N)CCCN(C(=O)N(C)C)c1ccccc1	> 100 µM	> 100 µM	> 100 µM	> 100 µM	> 100 µM	> 100 µM	> 100 µM	> 100 µM	> 100 µM	> 100 µM
COc1cccc(NC(=O)CC(=O)N2N=C(C)C(N=Nc3ccc(C(=O)O)cc3)C2=O)c1 (stereo not given)	> 100 µM	> 100 µM	> 100 µM	> 100 µM	> 100 µM	> 100 µM	> 100 µM	> 100 µM	45.1 µM	> 100 µM
O=P(O)(O)C=C=C1CCCCC1	> 100 µM	> 100 µM	> 100 µM	> 100 µM	> 100 µM	> 100 µM	> 100 µM	> 100 µM	> 100 µM	> 100 µM
O=C(O)COc1cc(-c2ccccc2)nc2ccccc12	> 100 µM	> 100 µM	> 100 µM	> 100 µM	> 100 µM	> 100 µM	> 100 µM	> 100 µM	> 100 µM	> 100 µM
O=c1nc2ccc3sc4ccccc4c(=O)c3n2c(=O)[nH]1	> 100 µM	> 100 µM	> 100 µM	> 100 µM	> 100 µM	> 100 µM	> 100 µM	> 100 µM	> 100 µM	> 100 µM
COc1cc2c(c(OC)c1)C(=O)O[C@H](C)CCCC/C=C/C2	27.5 µM	29.6 µM	> 32.9 µM	> 66.9 µM	> 31.1 µM	23 µM	31.3 µM	> 100 µM	> 32.8 µM	> 100 µM
COc1ccc2c(c1)C(=O)C1CCC(=O)N1C2c1ccc2c(c1)OCO2 (stereo not given)	78.2 µM	40.2 µM	28 µM	29.6 µM	32.5 µM	35.1 µM	15.9 µM	39.8 µM	36.5 µM	> 100 µM
